Patent EP0346694A1, “Substituted 3-Aminosydnone imines, process for their preparation and their use” (CASSELLA Aktiengesellschaft, priority 1988, dated 1989)
Structures can show the parent of a compound that is named as a salt.

system: Spiralstreifen der Arteria pulmonalis des Meerschweinchens; assay: Relaxation of potassium-depolarised, CaCl₂-contracted spiral strips of guinea pig pulmonary artery (modified method of Godfraind and Kaba / Schüman et al); format: cell-based, Meerschweinchen; details: Cavia porcellus; concentration inhibiting the contraction by 50 %; strips depolarised with 40 mmol/l Kalium in calcium-free Tyrode solution, contraction by 0,5 mmol/l CaCl₂; cumulative addition; mean of 4 to 6 strips; read-out: IC₅₀ (converted)
Text: Die pharmakologische Wirkung der verbindungen der Formel I wurde nach einer modifizierten Methode von Godfraind and Kaba (Arch.Int. Pharmacodyn. Ther. 196, (Suppl) 35 bis 49, 1972) und von Schüman et al (Naunyn-Schmiedeberg's Arch. Pharmacol. 289, 409 bis 418, 1975) ermittelt. Dabei werden Spiralstreifen der Arteria pulmonalis des Meerschweinchens nach Äquilibrierung in calciumfreier Tyrodelösung mit 40 mmol/l Kalium depolarisiert. Ein Zusatz von 0,5 mmol/l CaCl₂ löst dann eine Kontraktion aus. Die relaxierende Wirkung der Prüfsubstanz wird durch kumulative Zugabe in 1/2 log 10 abgestuften Konzentrationen ermittelt. Aus der Konzentrationswirkungskurve (Abszisse: -log mol/l Prüfsubstanz, Ordinate: % Hemmung der maximalen Kontraktion, Mittelwert von 4 bis 6 Gefäß-streifen) wird die Konzentration der Prüfsubstanz ermittelt, welche die Kontraktion um 50 % hemmt (= IC₅₀, mol/l). In der folgenden Tabelle sind die so erhaltenen IC₅₀-Werte angegeben. Wie der Vergleich mit dem IC₅₀-Wert 3·10⁻⁴ für die bekannte Verbindung Molsidomin (N-Ethoxycarbonyl-3-morpholino-sydnonimin), vgl. DE-B-16 95 897, ergibt, liegen die Werte für die Verbindungen der Formel I erheblich günstiger.

| Compound | IC50 |
| --- | --- |
| CC1(C)COCCN1[n+]1cc([NH-])on1 [a, 3-(3.3-Dimethylmorpholin-4-yl)-sydnonimin-hydrochlorid] | 1000 nM |
| CC1(C)CCCCN1[n+]1cc([NH-])on1 [b, 3-(2.2-Dimethylpiperidin-1-yl)-sydnonimin-hydrochlorid] | 1000 nM |
| CC(C)N1CCN([n+]2cc([NH-])on2)C(C)(C)C1 [c, 3-(4-Isopropyl-2.2-dimethyl-piperazin-1-yl)-sydnonimin-dihydrochlorid] | 1000 nM |
| CCOC(=O)[N-]c1c[n+](N2CCOCC2)no1 [d, N-Ethoxycarbonyl-3-morpholino-sydnonimin, reference compound] | 300000 nM |
